Here are results for 2 substances from US9995734B2, “Human T cell line assay for evaluating the immunologic identity of glatiramer acetate preparations” (Mylan Inc., priority 2013, dated 2018).

Assay [1] concerns Donor 4 COP T-cell lines (205-1D1, 205-1H7, 205-1F4). The assay is described as follows: MHC DR restriction testing (ATP proliferation with autologous and partially HLA-DR matched B-LCL), Donor 4 COP T-cell lines. The following applies: for Proliferation with antigen-incubated B-LCL, Mean: T-cell line 205-1F4. The class given is cell-based, human. As for the experimental part: MHC DR restriction testing of cell lines was carried out by measuring the proliferation response of the cell lines as described above in the presence of an array of APC selected based on the known HLA-DR loci of the original PBMC donor for the cell line tested, including autologous APC (B-LCL). The donors used are described in Table 2.
To define the MHC molecule used to present antigen to GA specific T cell lines, GA specific responses were measured in the presence of autologous APC and in the presence of APC matching one of the T cell donor's HLA-DR alleles. Therefore at least 3 APC were used in each experiment: autologous APC, APC matching DR allele 1 but not allele 2 and a third APC matching allele 2 but not allele 1. In some experiments a fourth APC B-LCL was used. A no antigen negative control was used. APC were inactivated by incubation with 50 ug/mL mitomycin C. Following inactivation, cells were washed three times to remove mitomycin C and suspended in X-VIVO 15 medium at 1×10^6 cells per mL. GA was added to the cell suspension to a final concentration of 20-60 μg/mL. The cells were incubated with antigen for 1 hour at 37° C. to allow antigen uptake and binding. The cell suspension was then centrifuged to pellet the cells and the cell pellet was washed once with medium. APC were adjusted to 2×10^5 cells per mL in X-VIVO 15 medium and added to opaque 96-well plates at 100 μL per well. T-cell suspensions of 2-4×10^5 cells per mL (unless otherwise specified) were added to the 96-well plates at 100 μL per well and the cultures incubated 4 days before measuring cell numbers using CellTiter Glo® (to evaluate proliferation).
Alternatively, APC were not pulsed. Instead, each well contained 10 ug/mL antigen, 50 μl APC and 100 μL of T cells.
After incubating for 4 days at 37° C. (5% CO2), 100 μL were removed from each well, combined with 100 μL CellTiterGlo reagent, and luminescence was measured using a Packard Fusion. Results were expressed in relative light units (RLU).
As described in the Methods, T-cell lines were tested for MHC restriction by measuring proliferation following incubation with APC. Mitomycin-treated autologous APC, and test APC, e.g., from donors having at least one HLA-DR match with the original PBMC donor were employed. The values in the data tables below are in RLU.
Donor 4 T-cell line 205-1D1 was assayed for proliferation, using autologous B-LCL, and B-LCL from Donors 1, 2, and 6 that had been incubated in the presence or absence of 60 μg/mL COP. T-cell line 205-1D1 was restimulated 5 times (not including the initial stimulation) with antigen before the MHC restriction assay was carried out. The results, shown in Table 73, indicate that 205-1D1 is restricted by HLA-DRβ1*13.
Donor 4 T-cell line 205-1H7 was assayed for proliferation, using autologous B-LCL, and B-LCL from Donors 1, 2, and 6 that had been incubated in the presence or absence of 40 μg/mL COP. T-cell line 205-1H7 was restimulated 5 times (not including the initial stimulation) with antigen before the MHC restriction assay was carried out. The results, shown in Table 74 and FIG. 14B, indicate that 205-1H7 is restricted by HLA-DRβ1*13.
Donor 4 T-cell line 205-1F4 and 205-1C4 was assayed for proliferation, using autologous B-LCL, and B-LCL from Donors 1, 2, and 6 that had been incubated in the presence or absence of 40 μg/mL COP. T-cell line 205-1F4 was restimulated 7 times (not including the initial stimulation) with antigen before the MHC restriction assay was carried out. The results, shown in Table 75, indicate that 205-1F4 is restricted by HLA-DRβ1*13.

Assay [2] relates to Donor 1 Human T-Cell Lines (GMA-stimulated). Put plainly: BrdU uptake proliferation assay, Donor 1 T-cell lines initially stimulated with GMA. The format is cell-based. The following applies: 10 μg/mL GMA. As for the experimental part: Proliferation was evaluated by measuring ATP content using a luminescent method (CellTiter Glo Luminescent Cell Viability Assay, Promega, Madison, Wis., cat. #G7571) or by measuring BrdU uptake by ELISA (Millipore cat. #2752), in both cases following kit instructions. A split well format was used. Cells in each well were resuspended and 65 μl transferred to the wells of each of two new U-bottom 96-well plates, to generate the replicate plates. For the initial screening, the original 96-well plate received mitomycin-treated autologous PBMC as APC plus 10 μg/mL antigen (GA). A first replicate plate received 100 μl., mitomycin-treated PBMC alone (2×10^5), and no antigen, and a second replicate plate received 100 μL mitomycin-treated PBMC plus GA at a final concentration of 10 μg/mL. Therefore, all three plates received autologous APC (PBMC) treated with mitomycin C to prevent cell division. […] The latter two plates were incubated for 3 days at 37° C., 6% CO2 before adding CellTiter Glo or BrdU and measuring signal. IL-2 was added at 10 U/mL to the original 96-well plate for expansion on Day 17. For subsequent screenings, mitomycin-treated EBV-transformed autologous B-LCL (2×10^5 to 5×10^5 cells/mL) were used as APC.
GMA-responsive cell lines were obtained from Donor 1 PBMC as described above (2×10^5 cells/well, i.e., 1×10^6 cells/mL, plated with 10 μg/mL GMA; IL-2 added on Days 3 and 7). In a split well assay begun on Day 12 the cells were stimulated with 10 μg/mL GMA and 1×10^5 mitomycin-treated autologous PBMC as APC. BrdU was added on Day 3, cells were incubated 4.5 hours and fixed, and uptake measured. […] These cell lines each produced an increase in signal of at least 50% relative to (no antigen) control.

Consider glatiramer acetate [COP], for which the “Proliferation with antigen-incubated B-LCL” value in assay [1] (T-cell line 205-1D1, B-LCL Donor 1 DRβ1*04:01/DRβ1*07:01, 60 μg/mL) is listed as 1504.7 RLU; in assay [1] (T-cell line 205-1D1, B-LCL Donor 2 DRβ1*04:01/DRβ1*04:04, 60 μg/mL), 1203.7 RLU; in assay [1] (T-cell line 205-1D1, B-LCL Donor 4 (autologous) DRβ1*07/DRβ1*13, 60 μg/mL) it was 231113.0 RLU; in assay [1] (T-cell line 205-1D1, B-LCL Donor 6 DRβ1*15:01/DRβ1*13, 60 μg/mL), 203780.3 RLU; in assay [1] (T-cell line 205-1H7, B-LCL Donor 1 DRβ1*04:01/DRβ1*07:01, 40 μg/mL) it was 8430 RLU; in assay [1] (T-cell line 205-1H7, B-LCL Donor 2 DRβ1*04:01/DRβ1*04:04, 40 μg/mL) it was 2065 RLU. Moreover, the “Proliferation with antigen-incubated B-LCL” value in assay [1] (T-cell line 205-1H7, B-LCL Donor 4 (autologous) DRβ1*07/DRβ1*13, 40 μg/mL) amounted to 32418 RLU; in assay [1] (T-cell line 205-1H7, B-LCL Donor 6 DRβ1*15:01/DRβ1*13, 40 μg/mL) it was 30583 RLU. The “Proliferation with antigen-incubated B-LCL, Mean” value in assay [1] (APC donor 1 *04:01, *07, 40 μg/mL) came to 11323 RLU; in assay [1] (APC donor 2 *04:01*04:04, 40 μg/mL), 1786 RLU; in assay [1] (APC donor 4 (autologous) *07, *13, 40 μg/mL) it was 84094 RLU; in assay [1] (APC donor 6 *13, *15, 40 μg/mL) it was 113079 RLU.
As for glatiramer acetate [GMA], the BrdU uptake in assay [2] (222-AC11, control 0.680) is 1.244 OD450; in assay [2] (222-AF2, control 0.454), 1.119 OD450; in assay [2] (222-AF5, control 0.606), 1.133 OD450; in assay [2] (222-AG11, control 0.359), 0.875 OD450; in assay [2] (222-AG12, control 0.448), 0.949 OD450; in assay [2] (222-BA4, control 0.370), 0.603 OD450. Also, the BrdU uptake in assay [2] (222-BA11, control 0.255) worked out at 0.783 OD450; in assay [2] (222-BC11, control 0.499) it was 0.921 OD450. For the same substance, the “increase in signal relative to (no antigen) control” value in assay [2] (eight Donor 1 cell lines of Table 4) is given as “at least 50%”.
